Test results as given in US20110105389A1 (priority 2009, published 2011).

What follows are compounds tested against T1, human ghrelin receptor (GRLN, growth hormone secretagogue receptor, hGHS-R1a) (Homo sapiens, UniProt Q92847) (assay: Competitive radioligand binding assay (ghrelin receptor), Method B1). Details: not given.
T1 construct: purchased PerkinElmer BioSignal #RBHGHSM, lot#1887; host or cells: HEK-293 cells, stably transfected (membranes)
Description: Multiscreen Harvest plates-GF/C (Millipore, #MAHFC1H60) • 4. […] Bottom seal (Millipore, #MATAH0P00) • 7. […] Binding Buffer: 25 mM Hepes (pH 7.4), 1 mM CaCl2, 5 mM MgCl2. 2.5 mM EDTA, 0.4% BSA
Competition experiments were performed in a 300 μl filtration assay format. • 1. 220 μL of membranes diluted in binding buffer • 2. 40 μL of compound diluted in binding buffer • 3.
Compounds were provided frozen on dry ice at a stock concentration of 10 mM diluted in 100% DMSO and stored at −80° C. until the day of testing. On the test day, compounds were allowed to thaw at rt overnight and then diluted in assay buffer according to the desired test concentrations. Under these conditions, the maximal final DMSO concentration in the assay was 0.1%.
Plates were sealed with TopSeal-A, vortexed gently and incubated at rt for 30 min. The reaction was arrested by filtering samples through Multiscreen Harvest plates (pre-soaked in 0.5% polyethyleneimine) using a Tomtec Harvester, washed 9 times with 500 μL of cold 50 mM Tris-HCl (pH 7.4, 4° C.), and then plates were air-dried in a fumehood for 30 min. A bottom seal was applied to the plates prior to the addition of 25 μL of MicroScint-0 to each well. Plates were than sealed with TopSeal-A and counted for 30 sec per well on a TopCount Microplate Scintillation and Luminescence Counter (PerkinElmer) using a count delay of 60 sec. Results were expressed as counts per minute (cpm).
Data were analyzed by GraphPad Prism (GraphPad Software, San Diego, Calif.) using a variable slope non-linear regression analysis. […] Dmax values were calculated using the following formula: […]

T1 sequence (Q92847 whole entry): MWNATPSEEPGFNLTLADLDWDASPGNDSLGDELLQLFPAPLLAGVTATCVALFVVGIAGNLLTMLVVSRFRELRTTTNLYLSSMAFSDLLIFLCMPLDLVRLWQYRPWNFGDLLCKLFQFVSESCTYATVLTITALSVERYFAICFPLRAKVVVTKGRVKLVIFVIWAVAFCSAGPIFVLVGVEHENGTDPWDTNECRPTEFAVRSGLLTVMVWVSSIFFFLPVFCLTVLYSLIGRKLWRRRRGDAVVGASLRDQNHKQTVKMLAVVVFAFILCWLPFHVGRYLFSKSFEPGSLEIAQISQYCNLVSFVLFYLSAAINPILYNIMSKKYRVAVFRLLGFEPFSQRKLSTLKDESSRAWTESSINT

Row | Compound | IC50 [µM] | Ki [µM]
1 | CCC(C)[C@@H]1NCCOc2ccccc2CC[C@@H](C)NC(=O)[C@@H](Cc2ccccc2)NC(=O)[C@H](C(C)O)N(C)C1=O (stereo partly drawn) [Compound 1342] | 0.001 to 0.01 | 0.001 to 0.01
2 | CC[C@H](C)[C@@H]1NC/C=C/c2ccccc2CCCNC(=O)[C@@H](Cc2ccccc2)NC(=O)[C@H]([C@H](C)O)N(C)C1=O [Compound 1346] | > 0.5 | 0.1 to 0.5

Same assay, conditions: Ghrelin receptor binding activity, Method B1

Row | Compound | Ki [µM] | IC50 [µM]
3 | CCC(C)[C@@H]1NC[C@@H](C)Oc2ccccc2CCCNC(=O)[C@@H](Cc2ccccc2)NC(=O)[C@H](C(C)O)N(C)C1=O (stereo partly drawn) [Compound 1301] | 0.1 to 0.5 | –
4 | CC(O)[C@H]1C(=O)N[C@H](Cc2ccccc2)C(=O)NC/C=C/c2ccccc2OCCN[C@@H](CO)C(=O)N1C (stereo partly drawn) [Compound 1305] | > 0.5 | –
5 | CCC(C)[C@@H]1NCCOc2cccnc2CCCNC(=O)[C@@H](Cc2ccccc2)NC(=O)[C@H](C(C)O)N(C)C1=O (stereo partly drawn) [Compound 1311] | > 0.5 | –
6 | CCC(C)[C@@H]1NC[C@@H](C)Oc2ccccc2/C=C/CNC(=O)[C@@H](Cc2ccccc2)NC(=O)[C@H](C(C)O)N(C)C1=O (stereo partly drawn) [Compound 1313] | 0.01 to 0.1 | 0.01 to 0.1
7 | CCC(C)[C@@H]1NC[C@H](C)Oc2ccccc2/C=C/CNC(=O)[C@@H](Cc2ccccc2)NC(=O)[C@H](C(C)O)N(C)C1=O (stereo partly drawn) [Compound 1314] | 0.1 to 0.5 | 0.1 to 0.5
8 | CC(O)[C@H]1C(=O)N[C@H](Cc2ccccc2)C(=O)NC/C=C/c2ccccc2OCCN[C@@H](C2CCCC2)C(=O)N1C (stereo partly drawn) [Compound 1320] | 0.01 to 0.1 | 0.01 to 0.1
9 | CCC(C)[C@H]1C(=O)N(C)[C@@H](C(C)O)C(=O)N[C@H](Cc2ccccc2)C(=O)NC/C=C/c2ccccc2OCCN1C (stereo partly drawn) [Compound 1323] | 0.01 to 0.1 | –
10 | CCC(C)[C@@H]1NCCOc2ccccc2/C=C/CNC(=O)[C@@H](Cc2ccc(N)cc2)NC(=O)[C@H](C(C)O)N(C)C1=O (stereo partly drawn) [Compound 1328] | 0.01 to 0.1 | 0.1 to 0.5
11 | CCC(C)[C@@H]1NCCOc2ccccc2/C=C/CNC(=O)[C@@H](Cc2c[nH]cn2)NC(=O)[C@H](C(C)O)N(C)C1=O (stereo partly drawn) [Compound 1329] | 0.01 to 0.1 | 0.1 to 0.5
12 | CCC(C)[C@@H]1NCCOc2ccccc2/C=C/CNC(=O)[C@@H](Cc2ccncc2)NC(=O)[C@H](C(C)O)N(C)C1=O (stereo partly drawn) [Compound 1330] | 0.01 to 0.1 | 0.1 to 0.5
13 | CCC(C)[C@@H]1NCCOc2ccccc2/C=C/CNC(=O)[C@@H](Cc2ccco2)NC(=O)[C@H](C(C)O)N(C)C1=O (stereo partly drawn) [Compound 1331] | 0.01 to 0.1 | 0.01 to 0.1
14 | CCC(C)[C@@H]1NCCOc2ccccc2C[C@@H](O)CNC(=O)[C@@H](Cc2ccccc2)NC(=O)[C@H](C(C)O)N(C)C1=O (stereo partly drawn) [Compound 1339] | 0.1 to 0.5 | 0.1 to 0.5
15 | CCC(C)[C@@H]1NCCOc2cc(F)ccc2CC[C@H](C)NC(=O)[C@@H](Cc2ccccc2)NC(=O)[C@H](C(C)O)N(C)C1=O (stereo partly drawn) [Compound 1344] | 0.01 to 0.1 | –
16 | CC(O)[C@H]1C(=O)N[C@H](Cc2ccccc2)C(=O)N[C@@H](C)CCc2ccccc2OCCN[C@@H](C2CC2)C(=O)N1C (stereo partly drawn) [Compound 1345] | 0.01 to 0.1 | 0.1 to 0.5
17 | CCC(C)[C@@H]1N[C@H](C)COc2ccccc2CCCNC(=O)[C@@H](Cc2ccccc2)NC(=O)[C@H](C(C)O)N(C)C1=O (stereo partly drawn) [Compound 1347] | 0.1 to 0.5 | 0.1 to 0.5
18 | CCC(C)[C@@H]1N[C@@H](C)COc2ccccc2CCCNC(=O)[C@@H](Cc2ccccc2)NC(=O)[C@H](C(C)O)N(C)C1=O (stereo partly drawn) [Compound 1348] | 0.1 to 0.5 | > 0.5
19 | CCC(C)[C@@H]1NCCOc2ccccc2CCC(C(F)(F)F)NC(=O)[C@@H](Cc2ccccc2)NC(=O)[C@H](C(C)O)N(C)C1=O (stereo partly drawn) [Compound 1349] | 0.01 to 0.1 | –
20 | CC(C)C1NCCOc2cc(F)ccc2C=CCNC(=O)C(C(C)c2ccccc2)NC(=O)C(C(C)O)N(C)C1=O (stereo not drawn) [Compound 1689] | – | 0.01 to 0.1
21 | CCCC1CCc2ccccc2OCCNC(C(C)C)C(=O)N(C)C(C(C)O)C(=O)NC(Cc2ccccc2)C(=O)N1 (stereo not drawn) [Compound 1694] | – | > 0.5
22 | CC(C)C1CCc2ccccc2OCCNC(C(C)C)C(=O)N(C)C(C(C)O)C(=O)NC(Cc2ccccc2)C(=O)N1 (stereo not drawn) [Compound 1695] | – | 0.1 to 0.5
23 | CCCC1CCc2ccccc2OCCNC(C(C)C)C(=O)N(C)C(C(C)O)C(=O)NC(Cc2cccc(F)c2)C(=O)N1 (stereo not drawn) [Compound 1696] | – | > 0.5
24 | CCCC1CCc2ccccc2OCCNC(C(C)C)C(=O)N(C)C(C(C)O)C(=O)NC(Cc2c[nH]c3ccccc23)C(=O)N1 (stereo not drawn) [Compound 1697] | – | 0.1 to 0.5
25 | CC(C)C1CCc2ccccc2OCCNC(C(C)C)C(=O)N(C)C(C(C)O)C(=O)NC(Cc2c[nH]c3ccccc23)C(=O)N1 (stereo not drawn) [Compound 1698] | – | 0.01 to 0.1
26 | CCC1CCc2ccc(F)cc2OC(C)CNC(C2(C)CC2)C(=O)N(C)C(C(C)O)C(=O)NC(Cc2c[nH]c3ccccc23)C(=O)N1 (stereo not drawn) [Compound 1706] | – | 0.1 to 0.5

Row | Compound | Ki [µM] | IC50 [µM]
27 | CC(C)[C@@H]1NCCOc2ccccc2CC[C@H](C(C)C)NC(=O)[C@@H](Cc2cccc(F)c2)NC(=O)[C@H](C(C)O)N(C)C1=O (stereo partly drawn) [Compound 1708] | – | 0.1 to 0.5
28 | CC[C@@H]1C#Cc2ccc(Cl)cc2OCCN[C@@H](C(C)C)C(=O)N(C)[C@@H](C(C)O)C(=O)N[C@H](Cc2c[nH]c3ccccc23)C(=O)N1 (stereo partly drawn) [Compound 1709] | – | 0.01 to 0.1
29 | CCC(C)[C@@H]1NCCO[C@H]2CCC[C@H]2CCCNC(=O)[C@@H](Cc2ccc(Cl)cc2)NC(=O)[C@H](C(C)O)N(C)C1=O (stereo partly drawn) [Compound 1714] | – | 0.001 to 0.01
30 | CCC(C)[C@@H]1NCCO[C@H]2CCCC[C@H]2CCCNC(=O)[C@@H](Cc2ccc(Cl)cc2)NC(=O)[C@H](C(C)O)N(C)C1=O (stereo partly drawn) [Compound 1715] | – | 0.001 to 0.01
31 | CC[C@@H]1CCc2ccc(F)cc2O[C@H](C)CN[C@@H](C2(C)CC2)C(=O)N(C)[C@@H](C(C)O)C(=O)N[C@H](Cc2cccc(F)c2)C(=O)N1 (stereo partly drawn) [Compound 1721] | – | 0.1 to 0.5
32 | CC[C@@H]1CCc2c(F)cccc2OCCN[C@@H](C(C)C)C(=O)N(C)[C@@H](C(C)O)C(=O)N[C@H](Cc2ccccc2)C(=O)N1 (stereo partly drawn) [Compound 1722] | – | 0.01 to 0.1
33 | CC[C@@H]1CCc2c(F)cccc2OCCN[C@@H](C(C)C)C(=O)N(C)[C@@H](C(C)O)C(=O)N[C@H](Cc2cccc(F)c2)C(=O)N1 (stereo partly drawn) [Compound 1724] | – | 0.01 to 0.1
34 | CC[C@@H]1CCc2ccc(OC)cc2OCCN[C@@H](C(C)C)C(=O)N(C)[C@@H](C(C)O)C(=O)N[C@H](Cc2c[nH]c3ccccc23)C(=O)N1 (stereo partly drawn) [Compound 1727] | – | > 0.5
35 | CC(O)[C@H]1C(=O)N[C@H](Cc2ccc(Cl)cc2)C(=O)NC/C=C/c2ccccc2OCCN[C@@H](C2CC2)C(=O)N1C (stereo partly drawn) [Compound 1728] | – | 0.01 to 0.1
36 | CC(C)C[C@@H]1NCCOc2ccccc2/C=C/CNC(=O)[C@@H](Cc2ccc(Cl)cc2)NC(=O)[C@H](C(C)O)N(C)C1=O (stereo partly drawn) [Compound 1731] | – | 0.1 to 0.5
37 | CC(O)[C@H]1C(=O)N[C@H](Cc2ccc(Cl)cc2)C(=O)NC/C=C/c2ccccc2OCCN[C@@H](CC(C)(C)C)C(=O)N1C (stereo partly drawn) [Compound 1733] | – | 0.1 to 0.5
38 | CCC(C)C1NCCOc2ccccc2C=CCNC(=O)C(Cc2ccc(OC)cc2)NC(=O)C(C(C)O)N(C)C1=O (stereo not drawn) [Compound 1735] | – | 0.01 to 0.1
39 | CCC(C)C1NCCOc2ccccc2C=CCNC(=O)C(Cc2ccc(C)cc2)NC(=O)C(C(C)O)N(C)C1=O (stereo not drawn) [Compound 1736] | – | 0.01 to 0.1
40 | CC(O)[C@H]1C(=O)N[C@H](Cc2ccc(Cl)cc2)C(=O)N[C@@H](C)CCc2ccccc2O[C@H](C)CN[C@@H](C2CC2)C(=O)N1C (stereo partly drawn) [Compound 1741] | – | > 0.5
41 | CC(O)[C@H]1C(=O)N[C@H](Cc2ccc(Cl)cc2)C(=O)N[C@H](C)CCc2ccccc2OCCN[C@@H](C2CCCCC2)C(=O)N1C (stereo partly drawn) [Compound 1744] | – | > 0.5
42 | CC[C@@H]1CCc2ccccc2O[C@H](C)CN[C@@H](C2(C)CC2)C(=O)N(C)[C@@H](C(C)O)C(=O)N[C@H](Cc2c[nH]c3ccccc23)C(=O)N1 (stereo partly drawn) [Compound 1756] | – | 0.01 to 0.1
43 | CC[C@@H]1CCc2ccc(F)cc2OCCN[C@@H](CC(C)(C)C)C(=O)N(C)[C@@H](C(C)O)C(=O)N[C@H](Cc2c[nH]c3ccccc23)C(=O)N1 (stereo partly drawn) [Compound 1764] | – | > 0.5
44 | CC1CCc2ccccc2OCCNC(C(C)(C)C)C(=O)N(C)C(C(C)O)C(=O)NC(Cc2ccc(Cl)cc2)C(=O)N1 (stereo not drawn) [Compound 1800] | – | 0.01 to 0.1
45 | CC(=O)OC(C)C1C(=O)NC(Cc2ccccc2)C(=O)NCC=Cc2ccccc2OCCNC(C(C)C)C(=O)N1C (stereo not drawn) [Compound 1841] | – | > 0.5
46 | CCC(C)C1NCCOc2ccccc2C=CCNC(=O)C(Cc2ccc(Cl)cc2)NC(=O)C(C(C)OC(C)=O)N(C)C1=O (stereo not drawn) [Compound 1842] | – | 0.1 to 0.5
47 | CCC1CCc2ccc(C(F)(F)F)cc2OCCNC(C(C)C)C(=O)N(C)C(C(C)O)C(=O)NC(Cc2ccccc2)C(=O)N1 (stereo not drawn) [Compound 1846] | – | 0.1 to 0.5
48 | CCC1CCc2ccc(F)cc2OCCNC(C(C)C)C(=O)N(C)C(C(C)OC(C)=O)C(=O)NC(Cc2c[nH]c3ccccc23)C(=O)N1 (stereo not drawn) [Compound 1851] | – | > 0.5
49 | CCC1CCc2ccc(F)cc2OC(C)CNC(CC)C(=O)N(C)C(C(C)O)C(=O)NC(Cc2ccccc2)C(=O)N1 (stereo not drawn) [Compound 1852] | – | > 0.5
50 | CC[C@@H]1CCc2c(cccc2C(N)=O)OCCN[C@@H](C(C)C)C(=O)N(C)[C@@H](C(C)O)C(=O)N[C@H](Cc2ccccc2)C(=O)N1 (stereo partly drawn) [Compound 1864] | – | > 0.5
